Experimental data reported in ChEMBL document CHEMBL4402516, “5-Lipoxygenase as a drug target: A review on trends in inhibitors structural design, SAR and mechanism based approach” (Bioorg Med Chem, 2019).
Each block holds one compound with its values, some of them ahead of it.

Columns and labels:
[1] = biological target: T1, Polyunsaturated fatty acid 5-lipoxygenase (Homo sapiens, UniProt P09917); experiment: Inhibition of human PMNL 5-LOX using arachidonic acid as substrate after 5 mins by HPLC method
T1 sequence (P09917 whole entry): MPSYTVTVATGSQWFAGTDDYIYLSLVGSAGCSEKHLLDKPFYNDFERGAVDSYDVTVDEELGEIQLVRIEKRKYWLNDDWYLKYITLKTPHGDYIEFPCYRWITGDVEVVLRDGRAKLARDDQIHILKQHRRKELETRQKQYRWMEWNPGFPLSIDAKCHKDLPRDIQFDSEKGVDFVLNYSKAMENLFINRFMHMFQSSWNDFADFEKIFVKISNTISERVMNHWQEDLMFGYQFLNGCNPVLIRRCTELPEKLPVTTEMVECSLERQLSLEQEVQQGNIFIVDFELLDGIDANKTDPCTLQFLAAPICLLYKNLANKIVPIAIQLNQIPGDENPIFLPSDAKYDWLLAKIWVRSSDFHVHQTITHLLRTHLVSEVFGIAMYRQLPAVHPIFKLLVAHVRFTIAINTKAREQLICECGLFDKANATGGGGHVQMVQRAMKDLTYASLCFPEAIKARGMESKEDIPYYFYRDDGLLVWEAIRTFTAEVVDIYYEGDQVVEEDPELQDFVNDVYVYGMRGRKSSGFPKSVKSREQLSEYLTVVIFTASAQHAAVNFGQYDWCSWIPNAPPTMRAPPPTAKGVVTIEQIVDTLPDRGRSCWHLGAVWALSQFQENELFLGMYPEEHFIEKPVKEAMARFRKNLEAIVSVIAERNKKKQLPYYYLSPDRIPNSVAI

[2] = biological target: T2, Polyunsaturated fatty acid 5-lipoxygenase (Homo sapiens) (UniProt P09917); experiment: Inhibition of recombinant human 5-LOX expressed in Escherichia coli BL21 cells at 50 uM using arachidonic acid as substrate by UV-vis spectrophotometry relative to control
T2 sequence (whole entry): T1 sequence (P09917 whole entry)

[3] = biological target: Prostaglandin E synthase/G/H synthase 2 (Homo sapiens) (UniProt P35354+O14684); experiment: Inhibition of COX2/mPGES1 in TNFalpha-induced human HeLa cells assessed as reduction in PGE2 production at 50 uM incubated for 3 hrs by EIA relative to control; format: cell-based
Sequence of Prostaglandin E synthase/G/H synthase 2 (Homo sapiens) (O14684 whole entry, looked up): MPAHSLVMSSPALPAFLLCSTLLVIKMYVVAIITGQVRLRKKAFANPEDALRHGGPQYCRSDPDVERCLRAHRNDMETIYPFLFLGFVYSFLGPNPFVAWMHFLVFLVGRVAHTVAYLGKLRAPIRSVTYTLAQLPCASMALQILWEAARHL
Sequence of Prostaglandin E synthase/G/H synthase 2 (Homo sapiens) (P35354 whole entry, looked up): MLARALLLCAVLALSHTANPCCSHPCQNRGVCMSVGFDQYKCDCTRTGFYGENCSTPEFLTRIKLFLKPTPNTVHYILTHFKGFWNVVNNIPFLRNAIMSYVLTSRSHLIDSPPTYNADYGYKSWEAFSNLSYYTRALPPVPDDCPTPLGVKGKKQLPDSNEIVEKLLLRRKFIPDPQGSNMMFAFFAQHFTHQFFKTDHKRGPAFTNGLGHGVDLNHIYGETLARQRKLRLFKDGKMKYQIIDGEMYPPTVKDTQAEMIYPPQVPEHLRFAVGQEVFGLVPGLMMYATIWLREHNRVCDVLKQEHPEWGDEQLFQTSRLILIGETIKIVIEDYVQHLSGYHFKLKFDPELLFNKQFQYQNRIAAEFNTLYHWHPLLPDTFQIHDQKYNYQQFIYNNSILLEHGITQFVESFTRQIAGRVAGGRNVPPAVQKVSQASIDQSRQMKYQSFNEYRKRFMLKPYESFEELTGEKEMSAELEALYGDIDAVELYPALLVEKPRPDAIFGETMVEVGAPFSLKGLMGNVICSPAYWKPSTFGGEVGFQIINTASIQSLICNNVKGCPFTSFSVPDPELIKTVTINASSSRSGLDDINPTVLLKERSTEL

[4] = Inhibition of soybean 15-LOX by spectrophotometric method; parameters: species or system Glycine max
[5] = biological target: T1, Polyunsaturated fatty acid 5-lipoxygenase; experiment: Inhibition of recombinant human 5-LOX expressed in baculovirus-infected insect cells preincubated for 10 mins followed by Arachidonic acid and ATP addition and measured after 20 mins by H2DCFD dye based fluorescence method
[6] = biological target: T2, Polyunsaturated fatty acid 5-lipoxygenase (Homo sapiens); experiment: Inhibition of 5-LOX in human whole blood preincubated for 10 mins followed by Arachidonic acid and ATP addition and measured after 20 mins by H2DCFD dye based fluorescence method; format: tissue-based
[7] = biological target: T1, Polyunsaturated fatty acid 5-lipoxygenase; experiment: Inhibition of recombinant human 5-LOX expressed in Escherichia coli BL21 (DE3) cells preincubated for 10 mins followed by arachidonic acid addition and measured after 10 mins by RP-HPLC method
[8] = biological target: T3, Polyunsaturated fatty acid 5-lipoxygenase (Rattus norvegicus) (UniProt P12527); experiment: Inhibition of rat 5-LOX expressed in insect sf21 cells at 1 uM preincubated for 4 mins followed by Arachidonic acid addition and measured after 4 mins by FOX assay relative to control
T3 sequence (whole entry): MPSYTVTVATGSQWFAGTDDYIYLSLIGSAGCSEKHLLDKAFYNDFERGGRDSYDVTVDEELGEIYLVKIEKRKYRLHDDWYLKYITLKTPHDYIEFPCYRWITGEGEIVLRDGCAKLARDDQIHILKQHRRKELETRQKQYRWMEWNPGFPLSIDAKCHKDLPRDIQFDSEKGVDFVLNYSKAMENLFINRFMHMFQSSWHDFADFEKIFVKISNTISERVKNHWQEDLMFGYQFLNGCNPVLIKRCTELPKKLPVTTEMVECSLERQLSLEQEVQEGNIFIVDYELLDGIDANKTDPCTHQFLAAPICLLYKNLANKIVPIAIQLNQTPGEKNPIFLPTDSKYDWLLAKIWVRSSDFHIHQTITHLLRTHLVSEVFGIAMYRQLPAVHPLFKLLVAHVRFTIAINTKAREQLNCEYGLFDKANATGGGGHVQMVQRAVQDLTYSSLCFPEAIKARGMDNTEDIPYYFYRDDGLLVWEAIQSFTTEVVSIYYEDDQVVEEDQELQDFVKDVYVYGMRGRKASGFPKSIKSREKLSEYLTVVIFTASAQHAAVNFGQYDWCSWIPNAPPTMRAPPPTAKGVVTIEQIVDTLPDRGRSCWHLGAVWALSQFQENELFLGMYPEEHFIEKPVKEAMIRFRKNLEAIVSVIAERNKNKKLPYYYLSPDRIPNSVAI

[9] = biological target: T3, Polyunsaturated fatty acid 5-lipoxygenase (Rattus norvegicus); experiment: Inhibition of 5-LOX in rat RBL-1 cells assessed as reduction in LTB4 secretion at 1 uM preincubated for 10 mins followed by A23187 stimulation and measured after 15 mins by EIA; format: cell-based
MCF7 = experiment: Antiproliferative activity against human MCF7 cells by MTT assay; format: functional, cell-based
Glycine max = experiment: Inhibition of soybean 5-LOX at 100 uM incubated for 10 mins relative to control
[10] = biological target: T1, Polyunsaturated fatty acid 5-lipoxygenase; experiment: Inhibition of 5-LOX (unknown origin) after 5 mins by colorimetric method
[11] = biological target: T4, Polyunsaturated fatty acid 5-lipoxygenase (Rattus norvegicus, UniProt P12527); experiment: Inhibition of rat 5-LOX expressed in insect sf21 cells preincubated for 4 mins followed by Arachidonic acid addition and measured after 4 mins by FOX assay
T4 sequence (P12527 whole entry): T3 sequence (whole entry)

[12] = biological target: T1, Polyunsaturated fatty acid 5-lipoxygenase; experiment: Competitive inhibition of recombinant human 5-LOX expressed in Escherichia coli BL21 cells using Arachidonic acid as substrate by UV absorbance
[13] = biological target: T1, Polyunsaturated fatty acid 5-lipoxygenase; experiment: Inhibition of human leukocyte 5-LOX using arachidonic acid as substrate by UV/Vis spectrophotometry
[14] = biological target: T1, Polyunsaturated fatty acid 5-lipoxygenase; experiment: Inhibition of 5-LOX in A23187-stimulated human neutrophils preincubated for 15 mins followed by A23187 stimulation and measured after 10 mins
[15] = Inhibition of potato 5-LOX using linoleic acid as substrate measured at 2 min by UV absorbance method; parameters: species or system Solanum tuberosum

IC50 [4]: 10.3 µM
SMILES: CCCCCC(=O)c1c(O)cc(O)c(C/C=C(\C)CCC=C(C)C)c1O

IC50 [5]: 0.229 µM
IC80 [6]: 0.37 µM
SMILES: Cn1nccc1-c1ccc(Sc2ccc(C3(C(N)=O)CCOCC3)cc2)cc1

IC50 [1]: 54 µM
SMILES: O=C(/C=C/C=C/c1ccc2c(c1)OCO2)N1CCCCC1 [PIPERINE]

IC50 (MCF7): 0.9 µM
inhibition (Glycine max): 68%
SMILES: NCCCC(=O)c1cc(=O)c2cc(F)ccc2o1

IC50 [10]: 48.3 µM
SMILES: Cc1cc(Nc2ncc(-c3ccc(F)cc3)o2)cc(C)c1O

IC50 [13]: 0.17 µM
SMILES: Cc1ccc(S(=O)(=O)n2c(C(=O)C(=O)N3CCCC3)cc3ccccc32)cc1

IC50 [15]: 33.7 µM
SMILES: O=C(c1[nH]nc2c1CSc1sc(Br)cc1-2)N1CCN(c2ccccc2F)CC1

Second part, the compound before the results:

SMILES: COc1cc(CNC(=O)CCCC/C=C/C(C)C)ccc1O [CAPSAICIN]
IC50 [1]: 56 µM

SMILES: C=CCc1ccc(O)c(OC)c1 [EUGENOL]
IC50 [1]: 26 µM

SMILES: CS(=O)(=O)NC(Cc1cc(I)c(OCc2ccon2)c(I)c1)C(=O)O (stereo unspecified)
inhibition [2]: 74%
inhibition [3]: 66%

SMILES: O=C(NCCCCCCCCCNC(=O)c1cccc(O)c1O)c1cccc(O)c1O
IC50 [7]: 0.1 µM

SMILES: COc1ccc(/C=C2\SC(c3ccc4ccccc4c3)=NC2=O)cc1
inhibition [8]: 96%
inhibition [9]: 98%

SMILES: O=C/C=C/c1ccccc1
IC50 [1]: 35 µM

SMILES: CC(C)=CCn1cc(/C=N/NC(N)=O)c2cc(Br)ccc21
IC50 [11]: 0.12 µM

SMILES: Clc1ccc(-c2cc(-c3c[nH]c4ccccc34)cc(-c3ccc(Cl)cc3)n2)cc1
IC50 [12]: 10 µM

SMILES: Cc1cccc(OC(=O)c2cc([N+](=O)[O-])cc([N+](=O)[O-])c2)c1
IC50 [14]: 0.9 µM

SMILES: C=CCSCC=C [DIALLYL SULFIDE]
IC50 [1]: 83 µM
